According to patent publication US5039691A, “5-(1-(imidazol)methyl)-3,3-disubstituted-2(3H)furanone derivatives” (Marion Merrell Dow Inc., priority 1990, dated 1991):
Structures can show the parent of a compound that is named as a salt. Blank lines part the entries; values can stand above or below the compound they belong to.

How the values were obtained:
Parameters in all cases: species or system guinea pig
[1] = target: T1, muscarinic cholinergic receptors on intestinal (ileal-longitudinal) smooth muscle (Cavia porcellus, UniProt H0W1Z3); test: Antimuscarinic test: antagonism of carbachol contraction of isolated ileum (Muscarinic Antagonist Activity, Ileum); details: carbachol agonist, 37° C.
T1 construct: The longitudinal muscle, with the myenteric plexus attached, is separated from the underlying circular muscle; from tissue; host or cells: guinea pig ileum, longitudinal smooth muscle with myenteric plexus
T1 sequence (H0W1Z3 1-590): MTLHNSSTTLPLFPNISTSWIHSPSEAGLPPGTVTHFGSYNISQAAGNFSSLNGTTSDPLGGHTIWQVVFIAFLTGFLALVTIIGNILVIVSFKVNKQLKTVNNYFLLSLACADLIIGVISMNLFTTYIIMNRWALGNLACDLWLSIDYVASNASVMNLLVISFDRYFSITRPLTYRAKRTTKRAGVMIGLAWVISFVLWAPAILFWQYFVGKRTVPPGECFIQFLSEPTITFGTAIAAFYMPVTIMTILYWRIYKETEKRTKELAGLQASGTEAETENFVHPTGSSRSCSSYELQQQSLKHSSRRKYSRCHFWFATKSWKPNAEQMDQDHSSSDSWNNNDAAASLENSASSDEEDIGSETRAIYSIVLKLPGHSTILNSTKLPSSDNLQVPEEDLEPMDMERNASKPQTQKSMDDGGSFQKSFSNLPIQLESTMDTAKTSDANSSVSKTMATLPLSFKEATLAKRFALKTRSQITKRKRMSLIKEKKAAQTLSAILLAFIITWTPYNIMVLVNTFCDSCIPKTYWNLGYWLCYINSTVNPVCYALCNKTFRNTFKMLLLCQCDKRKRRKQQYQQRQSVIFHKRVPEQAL

[2] = system: Male Guinea pigs; test: Primary in vivo bronchodilator assay for muscarinic antagonists (reversal of carbachol bronchoconstriction); details: cumulative dose causing 50% reversal of carbachol bronchoconstriction; for ED50: Cavia porcellus, iv; for Bronchodilator Activity ED50: i.v.
Protocol: PRIMARY IN VIVO BRONCHODILATOR ASSAY FOR MUSCARINIC ANTAGONISTS Male Guinea pigs were anesthetized by urethane. The trachea, carotid artery and jugular vein were cannulated. Animals were ventilated with room air at a constant rate and volume. Airway pressure was measured from a side port of the tracheal catheter, and blood pressure and heart rate were monitored as well. After a stable baseline period, an aerosol of carbachol was administered via an ultrasonic nebulizer. Once the bronchoconstrictor response plateaued, test compound was given in increasing i.v. doses to cause graded, cumulative reductions in airway pressure. If more than a 50% reversal of bronchoconstriction occurred, an ED50 value for bronchodilator potency was calculated using a probit analysis. The ED50 was defined as the cumulative i.v. dose that caused a 50% reversal of bronchoconstriction.

[3] = target: T2, muscarinic cholinergic receptors on bladder detrusor muscle (Cavia porcellus, UniProt H0W1Z3); test: Antimuscarinic test: antagonism of carbachol contraction of isolated bladder (Muscarinic Antagonist Activity, Bladder); details: bladder detrusor strips, carbachol agonist, 35° C.
T2 construct: The peritoneal cavity is opened and the bladder is held lightly at its apex; from tissue; host or cells: guinea pig urinary bladder, detrusor strips without mucosa
T2 sequence (H0W1Z3 1-590): as above
Protocol: ANTIMUSCARINIC TEST PROTOCOL
PREPARATION OF BLADDER FOR TESTING
Male albino guinea pigs are killed by decapitation or cervical dislocation. The peritoneal cavity is opened and the bladder is held lightly at its apex, stretched gently, and fat is lifted with fine forceps and dissected away in situ with blunt-tipped scissors as close to the surface of the bladder as possible. The tissue is placed in a latex-bottomed Petri dish that contains a modified Krebs solution (133 mM NaCl, 1.3 mM […], 16.3 mM NaHCO3, 4.7 mM KCl, 0.6 mM MgSO4.7H2 O, 2.5 mM CaCl2.2H2 O, 7.7 mM dextrose) and cut above the neck. The bladder is collapsed into a flat pouch, which is opened by two lateral incisions and unfolded to give a rectangular sheet of tissue approximately 2 cm long and 1 cm wide. The sheet is gently stretched and pinned to the bottom of the Petri dish. Blunt separation of the mucosa, which is visible as a looser superficial pink layer, is started at one end by carefully inserting the blades of micro dissecting scissors between the mucosa and muscle layers and using gentle spreading of the blades, together with steady traction with forceps to tease the two layers apart. Clean removal of the mucosa is usually possible without any fraying or tearing of the underlying muscle. The removal of the mucosa is considered essential for improving oxygen supply to the preparation and for providing better access on both sides of the thin muscle sheet for administered drugs (Ambache and Zar, J. Physiol. 210:671, 1970). The sheet is trimmed, if necessary, and cut longitudinally into four strips.
The strips are tied off with 5-0 silk suture and are then suspended in 10 mL water-jacketed glass tissue baths containing the Krebs solution maintained at 35° C. and aerated with 95% O2 /5% CO2. The suture connects each tissue to an isometric force-displacement transducer (Grass or Gould) coupled to a physiograph. Each preparation is suspended under a resting tension of 0.5 g and allowed to equilibrate for 36 minutes. During this period, the baths are emptied and filled every 12 minutes with 10 mL of warm Krebs buffer. At the end of this period, each muscle strip is conditioned by adding 10 μM carbachol to the baths. The drug remains in contact with each tissue for 1-2 minutes and then is removed by four rapid rinses of 10 mL of warm Krebs buffer. The preparations are allowed to recover for an additional 12 minutes before being used in experiments.
Carbachol is dissolved in saline to produce 2×10^-2 M stock concentrations. Serial dilutions (1:10) in saline or water are made from the stock solution. Appropriate volumes of these solutions are added cumulatively to the 10 mL tissue baths in order to obtain the desired bath concentrations.
PREPARATION OF TEST COMPOUNDS
Compounds that are soluble in water or saline are dissolved in these solvents to produce 2×10^-2 or 2×10^-3 M stock concentrations. Small amounts of IN HCl, NaOH, or 95% ethanol may be added for those agents that are not soluble in water or saline alone. Serial dilutions (1:10) in saline or water are made from the stock solution. Compounds that are insoluble in aqueous solvents are dissolved in dimethylsulfoxide (DMSO) to produce 4×10^-2 M stock solutions. Serial dilutions (1:10) in water are made from the stock solution. Other solvents may be used when appropriate and will be specifically described in the experimental procedure. Appropriate volumes are then added to the baths in order to obtain the desired bath concentrations.
Appropriate volumes of carbachol solutions are cumulatively added to the 10 mL tissue baths to increase the concentration of carbachol in the bath step-by-step without washing out after each single dose. With each concentration step, the tissue contracts isometrically. The next concentration is added only after the preceding contraction has reached a steady value. […]

Compound: Cc1cccn2cc[n+](CC3CC(c4ccccc4)(c4ccccc4)C(=O)O3)c12 (centres unmarked) [1-[(2,3,4,5-Tetrahydro-5-oxo-4,4-diphenyl-2-furanyl)methyl]-8-methylimidazo[1,2-a]pyridinium chloride hydrate]
Kb [1]: 74 nM

Compound: 5-[1-(3-Methylimidazol)methyl]-4,5-dihydro-5-methyl-3,3-diphenyl-2(3H)furanone hydrate
Kb [1]: 370 nM | Kb [3]: 317 nM

Compound: CC(C)Cc1nccn1CC1CC(c2ccccc2)(c2ccccc2)C(=O)O1 (centres unmarked) [5-[1-(2-Isobutylimidazol)methyl]-4,5-dihydro-3,3-diphenyl-2(3H)furanone hydrochloride]
Kb [1]: 489 nM | ED50 [2]: > 10 mg/kg

Compound: CCc1nc(C)cn1CC1CC(c2ccccc2)(c2ccccc2)C(=O)O1 (centres unmarked) [5-[1-(2-Ethyl-4-methylimidazol-methyl]-4,5-dihydro-3,3-diphenyl-2(3H)furanone hydrobromide]
Kb [1]: 86 nM

Compound: O=C1OC(Cn2ccnc2Cc2ccccc2)CC1(c1ccccc1)c1ccccc1 (centres unmarked) [5-[1-(2-Benzylimidazol)methyl]-4,5-dihydro-3,3-diphenyl-2(3H)furanone hydrochloride]
Kb [1]: 223 nM

Compound: CC(C)c1n(CC2CC(c3ccccc3)(c3ccccc3)C(=O)O2)cc[n+]1C (centres unmarked) [5-[1-(2-Isopropyl-3-methylimidazol-methyl]-4,5-dihydro-3,3-diphenyl-2(3H)furanone bromide]
Kb [1]: 2.9 nM | Kb [3]: 0.7 nM

Compound: CC(C)c1n(CC2CC(c3ccccc3)(c3ccccc3)C(=O)O2)cc[n+]1C (centres unmarked) [5-[1-(2-Isopropyl-3-methylimidazol)methyl]-4,5-dihydro-3,3-d] [5-[1-(2-Isopropyl-3-methylimidazol)methyl]-4,5-dihydro-3,3-diphenyl-2(3H)furanone iodide]
Bronchodilator Activity ED50 [2]: 0.06 mg/kg

Compound: CCc1nccn1CC1=CC(c2ccccc2)(c2ccccc2)C(=O)O1 [5-[1-(2-Ethylimidazol)methyl]-3,3-diphenyl-2(3H)furanone]
Kb [1]: 8.2 nM | ED50 [2]: 1.9 mg/kg

Compound: CC(C)c1n(CC2CC(c3ccccc3)(c3ccccc3)C(=O)O2)cc[n+]1C (centres unmarked) [5-[1-(2-Isopropyl-3-methylimidazol-methyl]-4,5-dihydro-3,3-d] [5-[1-(2-Isopropyl-3-methylimidazol-methyl]-4,5-dihydro-3,3-diphenyl-2(3H)furanone bromide]
Bronchodilator Activity ED50 [2]: 0.007 mg/kg

Compound: CCOCc1nccn1CC1CC(c2ccccc2)(c2ccccc2)C(=O)O1 (centres unmarked) [5-[1-(2-Ethoxymethylimidazol)methyl]-4,5-dihydro-3,3-diphenyl-2(3H)furanone]
Kb [1]: > 1000 nM | ED50 [2]: > 10 mg/kg

Compound: O=C1OC(C[n+]2ccn3ccccc32)CC1(c1ccccc1)c1ccccc1 (centres unmarked) [1-[(2,3,4,5-Tetrahydro-5-oxo-4,4-diphenyl-2-furanyl)methyl]imidazo[1,2-a]pyridinium chloride hydrate]
Kb [1]: 45 nM

Compound: Cc1n(CC2CC(c3ccccc3)(c3ccccc3)C(=O)O2)cc[n+]1C (centres unmarked) [5-[1-(2,3-Dimethylimidazol)methyl]-4,5-dihydro-3,3-diphenyl-2(3H)furanone bromide]
Kb [1]: 71 nM | ED50 [2]: 0.85 mg/kg

Compound: COC(=O)c1nccn1CC1CC(c2ccccc2)(c2ccccc2)C(=O)O1 (centres unmarked) [5-[1-(2-Carbomethoxyimidazol)methyl]-4,5-dihydro-3,3-diphenyl-2(3H)furanone hydrochloride]
Kb [1]: 435 nM

Further lines, with some results ahead:

Kb [1]: 5920 nM
Compound: O=C1OC(Cn2ccnc2-c2ccccc2)CC1(c1ccccc1)c1ccccc1 (centres unmarked) [5-[1-(2-Phenylimidazol)methyl]-4,5-dihydro-3,3-diphenyl-2(3H)furanone]
ED50 [2]: > 6 mg/kg

Kb [1]: 33 nM
Compound: O.O=C1OC(C[n+]2ccn3c2CCC3)CC1(c1ccccc1)c1ccccc1.[Cl-] (centres unmarked) [6,7-Dihydro-1-[(2,3,4,5-tetrahydro-5-oxo-4,4-diphenyl-2-furanyl)methyl]-5H-pyrrolo[1,2-a]imidazolium chloride hydrate]
ED50 [2]: 0.7 mg/kg

Kb [1]: 40 nM
Compound: COCc1n(CC2CC(c3ccccc3)(c3ccccc3)C(=O)O2)cc[n+]1C (centres unmarked) [5-[1-(2-Methoxymethyl-3-methylimidazol)methyl]-4,5-dihydro-3,3-diphenyl-2(3H)furanone iodide]

Kb [1]: > 1000 nM
Compound: O=C1OC(C[N+]2=C3CCCCCN3CCC2)CC1(c1ccccc1)c1ccccc1 (centres unmarked) [5-[(1,8-Diazabicyclo[5.4.0]undec-7-en-8-yl)methyl]-4,5-dihydro-3,3-diphenyl-2(3H)furanone chloride hydrate]
ED50 [2]: > 10 mg/kg

Kb [1]: 3.3 nM
Compound: CC(C)(C)c1nccn1CC1CC(c2ccccc2)(c2ccccc2)C(=O)O1 (centres unmarked) [5-[1-(2-tert-Butylimidazol)methyl]-4,5-dihydro-3,3-diphenyl-2(3H)furanone hydrochloride]
ED50 [2]: 0.14 mg/kg

Kb [1]: 113 nM
Compound: CCCCc1nccn1CC1CC(c2ccccc2)(c2ccccc2)C(=O)O1 (centres unmarked) [5-[1-(2-n-Butylimidazol)methyl]-4,5-dihydro-3,3-diphenyl-2(3H)furanone]
ED50 [2]: > 10 mg/kg

Kb [1]: 169 nM | Kb [3]: 350 nM
Compound: CCc1nccn1C[C@@H]1CC(c2ccccc2)(c2ccccc2)C(=O)O1 [(S)-(-)-5-[1-(2-Ethylimidazol)methyl]-4,5-dihydro-3,3-diphenyl-2(3H)furanone hydrochloride]

Kb [1]: 1280 nM
Compound: O=C1OC(Cn2cnc3ccccc32)CC1(c1ccccc1)c1ccccc1 (centres unmarked) [5-[(1-Benzimidazol)methyl]-4,5-dihydro-3,3-diphenyl-2(3H)furanone]

Kb [1]: 39 nM
Compound: COCCc1n(CC2CC(c3ccccc3)(c3ccccc3)C(=O)O2)cc[n+]1C (centres unmarked) [5-[1-(2-Methoxyethyl-3-methylimidazol)methyl]-4,5-dihydro-3,3-diphenyl-2(3H)furanone iodide hydrate]

Kb [1]: 229 nM
Compound: CCn1cc[n+](CC2CC(c3ccccc3)(c3ccccc3)C(=O)O2)c1 (centres unmarked) [5-[1-(Ethylimidazol)methyl]-4,5-dihydro-3,3-diphenyl-2(3H)furanone bromide]

Kb [1]: 638 nM
Compound: COCCc1nccn1CC1CC(c2ccccc2)(c2ccccc2)C(=O)O1 (centres unmarked) [5-[1-(2-Methoxyethylimidazol)methyl]-4,5-dihydro-3,3-diphenyl-2(3H)furanone hydrochloride]
ED50 [2]: > 10 mg/kg

Kb [1]: 544 nM
Compound: Cc1n(CC2CC(c3ccccc3)(c3ccccc3)C(=O)O2)cc[n+]1Cc1ccccc1 (centres unmarked) [5-[1-(2-Methyl-3-benzylimidazol)methyl]-4,5-dihydro-3,3-diphenyl-2(3H)furanone bromide]

Kb [1]: 67 nM
Compound: COCc1nccn1CC1CC(c2ccccc2)(c2ccccc2)C(=O)O1 (centres unmarked) [5-[1-[2-(2-Methoxymethyl)imidazol]methyl]-4,5-dihydro-3,3-diphenyl-2(3H)furanone hydrochloride hydrate]
ED50 [2]: > 10 mg/kg

Kb [1]: 373 nM
Compound: O=C1OC(Cn2ccnc2)CC1(c1ccccc1)c1ccccc1 (centres unmarked) [5-[(1-Imidazol)methyl]-4,5-dihydro-3,3-diphenyl-2(3H)furanone]
